Laboratory results taken from patent US20110262508A1, “ANTIMICROBIAL COMPOSITIONS, FORMULATIONS AND USES THEREOF” (priority 2007, published 2011).
Peptide text beside a SMILES is read from it.

Tested on: A. baumannii ATCC 19606, Acinetobacter spp. ATCC 17903, Acinetobacter spp. ATCC 19004, E. coli BL21, S. aureus, S. typhimurium AroA, P. aeruginosa, P. …
Experiment: Antibacterial spectrum over the serial dilution panel (Table 6)
Format: cell-based
Settings: summary of Table 6
Procedure: Synthetic peptides were tested for their ability to inhibit bacterial growth in liquid culture. The peptides were added at a concentration of between about 5 μM and about 10 μM to individual wells of 96-deep-well dishes that contained liquid growth media freshly inoculated with one of the following bacteria: A. baumannii ATCC Accession No. 19606, Acinetobacter spp. ATCC 17903, Acinetobacter spp. ATCC 19004, Escherichia coli strain BL21, S. aureus, S. typhimurium strain AroA, P. aeruginosa or P. pneumotropica. After 5-6 hours of shaking at 37° C., growth was measured as absorbance at 595 nm. As a control, cultures were grown in the presence of 0.1% acetonitrile (i.e., the concentration present in 10 μM peptide).

CC[C@H](C)[C@H](NC(=O)[C@H](CC(C)C)NC(=O)[C@H](CCCNC(=N)N)NC(=O)[C@@H](NC(=O)[C@@H](NC(=O)[C@H](Cc1ccc(O)cc1)NC(=O)[C@H](CCCCN)NC(=O)[C@@H](N)Cc1ccc(O)cc1)[C@@H](C)CC)[C@@H](C)CC)C(=O)N[C@@H](CCC(=O)O)C(=O)N[C@@H](CC(N)=O)C(=O)N[C@@H](Cc1c[nH]c2ccccc12)C(=O)NCC(=O)N[C@@H](CCC(=O)O)C(=O)N[C@@H](CO)C(=O)NCC(=O)N[C@@H](CO)C(=O)N[C@@H](CCCNC(=N)N)C(=O)N[C@@H](Cc1ccc(O)cc1)C(=O)N[C@@H](CO)C(=O)N[C@@H](CCCNC(=N)N)C(=O)N[C@H](C(=O)N[C@H](C(=O)N[C@@H](CCCNC(=N)N)C(=O)O)C(C)C)[C@@H](C)CC [Ac19] (H-YKYIIRLIENWGESGSRYSRIVR-OH) was tested, and the “selectively inhibited growth of A. baumannii ATCC Accession No. 19606, Acinetobacter spp. ATCC 17903, Acinetobacter spp. ATCC 19004, and S. aureus” value was “selectively inhibited growth”.

In the case of CC[C@H](C)[C@H](NC(=O)[C@H](CC(C)C)NC(=O)[C@H](CCCCN)NC(=O)[C@@H](N)Cc1ccccc1)C(=O)N1CCC[C@H]1C(=O)N[C@H](C(=O)N[C@@H](CCCNC(=N)N)C(=O)N[C@@H](CCCNC(=N)N)C(=O)N[C@@H](CO)C(=O)N[C@@H](CO)C(=O)N[C@@H](CC(C)C)C(=O)N[C@H](C(=O)N[C@@H](CCCCN)C(=O)N[C@@H](CO)C(=O)N[C@@H](CC(C)C)C(=O)N1CCC[C@H]1C(=O)N[C@@H](C)C(=O)N[C@@H](Cc1ccccc1)C(=O)N[C@@H](CCCNC(=N)N)C(=O)N[C@@H](CCCNC(=N)N)C(=O)N[C@@H](CCCCN)C(=O)N[C@@H](C)C(=O)N1CCC[C@H]1C(=O)O)C(C)C)[C@@H](C)O [Ac116] (H-FKLIPTRRSSLVKSLPAFRRKAP-OH; N-terminus and C-terminus assumed), the “selectively inhibited growth of Acinetobacter spp. ATCC 19004” value is reported as “selectively inhibited growth”.

With CC(C)C[C@H](NC(=O)[C@H](CCCCN)NC(=O)[C@H](CCCNC(=N)N)NC(=O)[C@H](CC(C)C)NC(=O)[C@H](CCC(=O)O)NC(=O)[C@H](CCC(=O)O)NC(=O)[C@H](Cc1ccc(O)cc1)NC(=O)[C@H](CCC(N)=O)NC(=O)[C@H](C)NC(=O)CN)C(=O)N[C@@H](CO)C(=O)N[C@@H](CCCCN)C(=O)NCC(=O)N[C@@H](CC(=O)O)C(=O)N[C@@H](Cc1c[nH]cn1)C(=O)N[C@@H](CC(C)C)C(=O)N[C@H](C(=O)N[C@@H](CCCCN)C(=O)N[C@@H](CC(C)C)C(=O)N[C@@H](CCCCN)C(=O)N[C@H](C(=O)N[C@@H](CO)C(=O)N1CCC[C@H]1C(=O)O)[C@@H](C)O)C(C)C [Ac98] (H-GAQYEELRKLSKGDHLVKLKTSP-OH; N-terminus and C-terminus assumed) the “selectively inhibited growth of S. aureus” value was “selectively inhibited growth”.

CC[C@H](C)[C@H](NC(=O)[C@H](CC(C)C)NC(=O)[C@H](CCCNC(=N)N)NC(=O)[C@@H](NC(=O)[C@@H](NC(=O)[C@H](Cc1ccc(O)cc1)NC(=O)[C@H](CCCCN)NC(=O)[C@@H](N)Cc1ccc(O)cc1)[C@@H](C)CC)[C@@H](C)CC)C(=O)N[C@@H](CCC(=O)O)C(=O)N[C@@H](CC(N)=O)C(=O)N[C@@H](Cc1c[nH]c2ccccc12)C(=O)NCC(=O)N[C@@H](CCC(=O)O)C(=O)N[C@@H](CS)C(=O)NCC(=O)N[C@@H](CS)C(=O)N[C@@H](CCCNC(=N)N)C(=O)N[C@@H](Cc1ccc(O)cc1)C(=O)N[C@@H](CS)C(=O)N[C@@H](CCCNC(=N)N)C(=O)N[C@H](C(=O)N[C@H](C(=O)N[C@@H](CCCNC(=N)N)C(=O)O)C(C)C)[C@@H](C)CC [Ac18] (H-YKYIIRLIENWGECGCRYCRIVR-OH; N-terminus and C-terminus assumed) was tested, and the “selectively inhibited growth of S. aureus” value was “selectively inhibited growth”.

CSCC[C@H](NC(=O)[C@H](CCCNC(=N)N)NC(=O)[C@H](CO)NC(=O)[C@H](CCCNC(=N)N)NC(=O)[C@H](CCCNC(=N)N)NC(=O)[C@H](CC(N)=O)NC(=O)[C@H](Cc1c[nH]cn1)NC(=O)[C@@H]1CCCN1C(=O)[C@H](Cc1c[nH]cn1)NC(=O)[C@@H]1CCCN1C(=O)[C@H](Cc1c[nH]cn1)NC(=O)[C@@H](NC(=O)[C@H](CCC(N)=O)NC(=O)[C@@H](NC(=O)[C@H](Cc1ccc(O)cc1)NC(=O)[C@H](Cc1c[nH]cn1)NC(=O)[C@H](Cc1c[nH]cn1)NC(=O)[C@H](Cc1c[nH]cn1)NC(=O)[C@@H](N)Cc1c[nH]c2ccccc12)[C@@H](C)O)[C@@H](C)O)C(=O)N[C@@H](CO)C(=O)N[C@@H](CCCNC(=N)N)C(=O)N[C@@H](C)C(=O)N[C@@H](CCCNC(=N)N)C(=O)O [Ac56] (H-WHHHYTQTHPHPHNRRSRMSRAR-OH; N-terminus and C-terminus assumed) was tested, and the “selectively inhibited growth of S. aureus” value was “selectively inhibited growth”.

In the case of CC(C)C[C@H](NC(=O)CNC(=O)[C@@H]1CCCN1C(=O)[C@H](Cc1c[nH]c2ccccc12)NC(=O)[C@H](CCCCN)NC(=O)[C@H](CCCCN)NC(=O)[C@H](CCCNC(=N)N)NC(=O)[C@H](C)NC(=O)[C@H](CCC(N)=O)NC(=O)[C@@H]1CCCN1)C(=O)NCC(=O)N[C@@H](CC(N)=O)C(=O)N[C@@H](CCC(=O)O)C(=O)N[C@H](C(=O)N[C@H](C(=O)N[C@@H](C)C(=O)N[C@@H](CCCNC(=N)N)C(=O)N[C@@H](CC(C)C)C(=O)N[C@@H](CC(C)C)C(=O)N[C@H](C(=O)N[C@H](C(=O)N[C@@H](CO)C(=O)N[C@@H](C)C(=O)O)C(C)C)[C@@H](C)O)[C@@H](C)O)C(C)C [Ac100] (H-PQARKKWPGLGNEVTARLLTVSA-OH; N-terminus and C-terminus assumed), the “selectively inhibited growth of S. aureus” value is reported as “selectively inhibited growth”.

In the case of CC[C@H](C)[C@H](NC(=O)[C@H](CCCNC(=N)N)NC(=O)[C@H](CCCNC(=N)N)NC(=O)[C@H](CS)NC(=O)CNC(=O)[C@H](CO)NC(=O)[C@@H](NC(=O)[C@@H](NC(=O)[C@H](CC(=O)O)NC(=O)[C@H](CCCCN)NC(=O)[C@@H](NC(=O)[C@H](CS)NC(=O)[C@@H](NC(=O)[C@@H](N)Cc1ccccc1)C(C)C)C(C)C)[C@@H](C)O)[C@@H](C)CC)C(=O)N[C@H](C(=O)NCC(=O)N[C@@H](Cc1ccccc1)C(=O)N[C@@H](CS)C(=O)N[C@H](C(=O)NCC(=O)N[C@@H](Cc1c[nH]c2ccccc12)C(=O)N[C@@H](CCCNC(=N)N)C(=O)N[C@@H](CC(C)C)C(=O)O)C(C)C)[C@@H](C)O [Ac102] (H-FVCVKDTISGCRRITGFCVGWRL-OH; N-terminus and C-terminus assumed), the “selectively inhibited growth of Acinetobacter spp. ATCC 19004, and S. aureus” value is reported as “selectively inhibited growth”.

With CC[C@H](C)[C@H](NC(=O)[C@H](CCCCN)NC(=O)[C@H](CO)NC(=O)[C@H](CC(C)C)NC(=O)[C@@H](N)CC(C)C)C(=O)N[C@@H](CCCNC(=N)N)C(=O)N[C@@H](C)C(=O)N[C@@H](CC(C)C)C(=O)N[C@@H](CCCNC(=N)N)C(=O)N[C@@H](CCCNC(=N)N)C(=O)N[C@@H](CCCNC(=N)N)C(=O)N[C@@H](CCCNC(=N)N)C(=O)N[C@@H](Cc1ccccc1)C(=O)NCC(=O)N[C@@H](CCC(N)=O)C(=O)N[C@@H](CS)C(=O)N[C@@H](CC(=O)O)C(=O)N[C@@H](CCCCN)C(=O)N[C@@H](CCCNC(=N)N)C(=O)N[C@H](C(=O)N[C@@H](CO)C(=O)N[C@@H](Cc1ccc(O)cc1)C(=O)N[C@@H](CCCCN)C(=O)O)[C@@H](C)CC [Ac15] (H-LLSKIRALRRRRFGQCDKRISYK-OH; N-terminus and C-terminus assumed) the “selectively inhibited growth of A. baumannii ATCC Accession No. 19606, Acinetobacter spp. ATCC 17903 and Acinetobacter spp. ATCC 19004” value was “selectively inhibited growth”.

With CC[C@H](C)[C@H](NC(=O)[C@H](Cc1c[nH]c2ccccc12)NC(=O)[C@H](CC(=O)O)NC(=O)[C@H](CO)NC(=O)[C@H](CO)NC(=O)[C@H](CC(C)C)NC(=O)[C@H](CC(C)C)NC(=O)[C@H](C)NC(=O)[C@H](CO)NC(=O)[C@H](CCCNC(=N)N)NC(=O)[C@H](CC(C)C)NC(=O)[C@@H](N)CCCNC(=N)N)C(=O)N[C@H](C(=O)N[C@@H](CO)C(=O)N[C@@H](CO)C(=O)N[C@@H](CCCNC(=N)N)C(=O)N[C@@H](CC(C)C)C(=O)N[C@@H](CC(C)C)C(=O)NCC(=O)N[C@H](C(=O)N[C@@H](CC(N)=O)C(=O)N[C@@H](CO)C(=O)N[C@@H](CCC(N)=O)C(=O)O)C(C)C)C(C)C [Ac41] (H-RLRSALLSSDWIVSSRLLGVNSQ-OH; N-terminus and C-terminus assumed) the “selectively inhibited growth of Acinetobacter spp. ATCC 19004, and S. aureus” value was “selectively inhibited growth”.

CC[C@H](C)[C@H](NC(=O)CN)C(=O)NCC(=O)N[C@@H](CCCCN)C(=O)N[C@@H](Cc1ccccc1)C(=O)N[C@@H](CC(C)C)C(=O)N[C@@H](Cc1c[nH]cn1)C(=O)N[C@@H](CO)C(=O)N[C@@H](C)C(=O)N[C@@H](CCCCN)C(=O)N[C@@H](CCCCN)C(=O)N[C@@H](Cc1ccccc1)C(=O)NCC(=O)N[C@@H](CCCCN)C(=O)N[C@@H](C)C(=O)N[C@@H](Cc1ccccc1)C(=O)N[C@H](C(=O)NCC(=O)N[C@@H](CCC(=O)O)C(=O)N[C@H](C(=O)N[C@@H](CCSC)C(=O)N[C@@H](CC(N)=O)C(=O)N[C@@H](CO)C(=O)O)[C@@H](C)CC)C(C)C [Ac178, reference compound] (H-GIGKFLHSAKKFGKAFVGEIMNS-OH; N-terminus and C-terminus assumed) was tested, and the “selectively inhibited growth of S. aureus” value was “selectively inhibited growth”.

With CC[C@H](C)[C@H](NC(=O)[C@H](CCSC)NC(=O)[C@H](Cc1c[nH]c2ccccc12)NC(=O)[C@@H](N)Cc1c[nH]cn1)C(=O)N1CCC[C@H]1C(=O)N[C@@H](CC(C)C)C(=O)N[C@@H](CCCNC(=N)N)C(=O)N[C@@H](CCCCN)C(=O)NCC(=O)N[C@@H](C)C(=O)N[C@@H](CCC(N)=O)C(=O)N[C@@H](Cc1ccc(O)cc1)C(=O)N[C@@H](CCC(=O)O)C(=O)N[C@@H](CCC(=O)O)C(=O)N[C@@H](CC(C)C)C(=O)N[C@@H](CCCNC(=N)N)C(=O)N[C@@H](CCCCN)C(=O)N[C@@H](CC(C)C)C(=O)N[C@@H](CO)C(=O)N[C@@H](CCCCN)C(=O)NCC(=O)N[C@@H](CC(=O)O)C(=O)N[C@@H](Cc1c[nH]cn1)C(=O)O [Ac97] (H-HWMIPLRKGAQYEELRKLSKGDH-OH; N-terminus and C-terminus assumed) the “selectively inhibited growth of S. aureus” value was “selectively inhibited growth”.
